Measured values published in article PMC7956819, “Peptides from the Intestinal Tract of Breast Milk-Fed Infants Have Antimicrobial and Bifidogenic Activity” (International Journal of Molecular Sciences, 2021).
Peptide text beside a SMILES is read from it.

Experiments:
Assay type in all cases: cell-based
[1] = test system: Bifidobacterium longum spp. infantis ATCC 15697; details: ATCC 15697, 18 h
Protocol: (§1) The bioactivity of the intestinal peptide extracts was determined via the microdilution method. Antimicrobial activity was screened with E. coli and S. aureus as representatives of common infant pathogens responsible for infectious disease, and growth-promoting activity was screened with B. infantis, one of the ideal colonizers of the infant gut. For the antimicrobial assays, colonies of bacteria were selected and inoculated in 2 mL of MHB and incubated at 37 °C for 24 h. The inoculum was diluted to 2 × 10^5 CFU/mL with MHB. For the growth-promoting assays, 100 µL of stock bacteria were inoculated in 10 mL of reinforced clostridial broth supplemented with 0.1% ascorbic acid and incubated under anaerobic conditions (BD BBL™ GasPak™) at 37 °C for 24 h. Optical density was measured at 600 nm, and the inoculum was diluted to an optical density of 0.05 with reinforced clostridial broth.
(§2) The intestinal peptide extracts were serially diluted with PBS to concentrations of 1×, 1/2×, 1/4×, 1/8×, 1/16×, 1/32×, 1/64×, and 1/128×. In a 96-well plate, 50 µL of each dilution was incubated with 50 µL of inoculum in duplicate, along with a negative control of 50 µL of inoculum with 50 µL of pure PBS and a sterility test of 50 µL of peptide with 50 µL of broth. Growth was determined by optical density readings at 600 nm (OD600) taken at 0 h (T0) and 18 h (T18). The following equation was used to determine percent inhibition or promotion of bacterial growth:
(§3) Candidate peptides were synthesized and dissolved in sterile nanopure water. Antimicrobial and growth-promoting assays were carried out as described above with serial dilutions ranging from […] to 15.6 μg/mL. Minimum inhibitory concentration (MIC) was determined by the concentration at which all visible growth was inhibited.

[2] = test system: Escherichia coli BL21 (DE3); details: BL21, 18 h
Protocol: as §1, §2, §3

[3] = test system: Staphylococcus aureus ATCC 12600; details: ATCC 12600, 18 h
Protocol: as §1, §2, §3

B. infantis MIC [1] [µg/mL]	E. coli MIC [2] [µg/mL]	S. aureus MIC [3] [µg/mL]	SMILES
>3000	>3000	>3000	CC[C@H](C)[C@H](NC(=O)[C@@H]1CCCN1C(=O)[C@H](CCC(N)=O)NC(=O)[C@@H]1CCCN1C(=O)[C@@H](NC(=O)[C@H](CCC(N)=O)NC(=O)[C@H](CCC(N)=O)NC(=O)[C@H](CCSC)NC(=O)[C@H](CC(C)C)NC(=O)[C@@H]1CCCN1C(=O)[C@H](CCC(N)=O)NC(=O)[C@H](CC(C)C)NC(=O)[C@H](CC(C)C)NC(=O)[C@@H]1CCCN1C(=O)[C@H](CC(C)C)NC(=O)[C@@H]1CCCN1C(=O)[C@H](CC(C)C)NC(=O)[C@@H](N)Cc1c[nH]cn1)C(C)C)C(=O)O [Peptide 1] (H-HLPLPLLQPLMQQVPQPI-OH)
>3000	>3000	>3000	CC[C@H](C)[C@H](NC(=O)[C@H](CCC(N)=O)NC(=O)[C@H](Cc1c[nH]cn1)NC(=O)[C@@H](NC(=O)[C@@H]1CCCN1C(=O)[C@H](CC(N)=O)NC(=O)[C@H](CC(C)C)NC(=O)[C@@H](N)CC(C)C)[C@@H](C)O)C(=O)N[C@@H](Cc1ccc(O)cc1)C(=O)N1CCC[C@H]1C(=O)N[C@H](C(=O)N[C@H](C(=O)N[C@@H](CCC(N)=O)C(=O)N1CCC[C@H]1C(=O)N[C@@H](CC(C)C)C(=O)N[C@@H](C)C(=O)N1CCC[C@H]1C(=O)N[C@H](C(=O)N[C@@H](Cc1c[nH]cn1)C(=O)N[C@@H](CC(N)=O)C(=O)N1CCC[C@H]1C(=O)N[C@H](C(=O)N[C@@H](CO)C(=O)O)[C@@H](C)CC)C(C)C)[C@@H](C)O)C(C)C [Peptide 2] (H-LLNPTHQIYPVTQPLAPVHNPIS-OH)
>3000	>3000	>3000	CC[C@H](C)[C@H](NC(=O)[C@H](CCC(N)=O)NC(=O)[C@@H](N)Cc1c[nH]cn1)C(=O)N[C@@H](Cc1ccc(O)cc1)C(=O)N1CCC[C@H]1C(=O)N[C@H](C(=O)N[C@H](C(=O)N[C@@H](CCC(N)=O)C(=O)N1CCC[C@H]1C(=O)N[C@@H](CC(C)C)C(=O)O)[C@@H](C)O)C(C)C [Peptide 3] (H-HQIYPVTQPL-OH; N-terminus and C-terminus assumed)
>3000	3000	3000	CC[C@H](C)[C@H](NC(=O)[C@@H]1CCCN1C(=O)[C@H](CC(N)=O)NC(=O)[C@H](Cc1c[nH]cn1)NC(=O)[C@@H](NC(=O)[C@@H]1CCCN1C(=O)[C@H](C)NC(=O)[C@@H](N)CC(C)C)C(C)C)C(=O)O [Peptide 4] (H-LAPVHNPI-OH)
>3000	2500	2500	CC[C@H](C)[C@H](NC(=O)[C@@H]1CCCN1C(=O)[C@@H](N)CCC(=O)O)C(=O)N1CCC[C@H]1C(=O)N[C@@H](CC(C)C)C(=O)N[C@@H](CCC(=O)O)C(=O)N[C@@H](CO)C(=O)N[C@@H](CCCNC(=N)N)C(=O)N[C@@H](CCC(=O)O)C(=O)N[C@@H](CCC(=O)O)C(=O)O [Peptide 5] (H-EPIPLESREE-OH)
>3000	>3000	>3000	CC[C@H](C)[C@H](NC(=O)[C@H](CCC(N)=O)NC(=O)[C@H](C)NC(=O)[C@H](Cc1c[nH]cn1)NC(=O)[C@@H]1CCCN1C(=O)[C@H](CCCNC(=N)N)NC(=O)[C@@H](NC(=O)[C@@H](NC(=O)[C@H](C)NC(=O)[C@@H]1CCCN1C(=O)[C@H](CC(N)=O)NC(=O)[C@H](C)NC(=O)[C@@H](N)Cc1ccc(O)cc1)C(C)C)C(C)C)C(=O)N1CCC[C@H]1C(=O)N[C@@H](CCC(N)=O)C(=O)N[C@@H](CCCNC(=N)N)C(=O)O [Peptide 6] (H-YANPAVVRPHAQIPQR-OH; N-terminus and C-terminus assumed)
>3000	3000	3000	CC(C)C[C@H](NC(=O)[C@H](CC(N)=O)NC(=O)[C@@H]1CCCN1C(=O)[C@@H](N)CCCNC(=N)N)C(=O)N[C@@H](Cc1c[nH]cn1)C(=O)N1CCC[C@H]1C(=O)N[C@@H](CO)C(=O)O [Peptide 7] (H-RPNLHPS-OH)
>3000	3000	3000	NCCCC[C@H](NC(=O)CNC(=O)[C@H](Cc1ccccc1)NC(=O)[C@H](CCCCN)NC(=O)[C@@H](N)CCC(=O)O)C(=O)N[C@@H](CC(=O)O)C(=O)N[C@@H](CCCCN)C(=O)N[C@@H](CO)C(=O)N1CCC[C@H]1C(=O)N[C@@H](CCCCN)C(=O)N[C@@H](Cc1ccccc1)C(=O)N[C@@H](CCC(N)=O)C(=O)O [Peptide 8] (H-EKFGKDKSPKFQ-OH)
>3000	3000	3000	CSCC[C@H](NC(=O)[C@@H](N)CC(=O)O)C(=O)N[C@@H](CC(C)C)C(=O)N[C@H](C(=O)N[C@H](C(=O)N[C@@H](CC(=O)O)C(=O)N1CCC[C@H]1C(=O)N[C@@H](CCCCN)C(=O)O)C(C)C)C(C)C [Peptide 9] (H-DMLVVDPK-OH; N-terminus and C-terminus assumed)
>3000	>3000	>3000	CC[C@H](C)[C@H](NC(=O)[C@@H](NC(=O)[C@@H]1CCCN1C(=O)[C@H](CC(C)C)NC(=O)[C@H](C)NC(=O)[C@H](CO)NC(=O)[C@@H](NC(=O)[C@@H](N)CCSC)[C@@H](C)O)[C@@H](C)CC)C(=O)N[C@@H](CCC(N)=O)C(=O)N[C@@H](CCCCN)C(=O)O [Peptide 10] (H-MTSALPIIQK-OH)
>3000	3000	3000	CC(C)C[C@H](NC(=O)[C@H](CC(=O)O)NC(=O)[C@H](CCCCN)NC(=O)[C@@H](N)Cc1ccccc1)C(=O)NCC(=O)N[C@@H](CCC(=O)O)C(=O)N[C@@H](CCC(=O)O)C(=O)N[C@@H](CC(N)=O)C(=O)N[C@@H](Cc1ccccc1)C(=O)N[C@@H](CCCCN)C(=O)O [Peptide 11] (H-FKDLGEENFK-OH)
